The results in this text go back to ChEMBL document CHEMBL1143893, “Novel nitroheterocyclic hypoxic markers for solid tumor: synthesis and biological evaluation” (Bioorg Med Chem, 2008).

A short description of this data set: Drug level in Chinese hamster V79 379A cells at 0.1 mM after 3.5 hrs by fluorescence microplate reader relative to control. It counts as ADME, cell-based, Cricetulus griseus. Conditions: 100 µM.
With `CN(C)CCNc1ccc2c3c(cccc13)-c1nc3cc([N+](=O)[O-])ccc3nc1-2`, the Fold change is recorded as 11.

The molecule `CN1CCN(c2ccc3c4c(cccc24)-c2nc4cc([N+](=O)[O-])ccc4nc2-3)CC1` came in with a Fold change of 9.

For `O=[N+]([O-])c1ccc2nc3c(nc2c1)-c1cccc2c([N+](=O)[O-])ccc-3c12`, the Fold change amounted to 6.
